According to PMC11881577, “In vitro and in vivo activity of 1,2,3,4,6-O-pentagalloyl-glucose against Candida albicans” (Antimicrobial Agents and Chemotherapy, 2025):

Assays:
hEno1 = molecular target: T1, hEno1 (Homo sapiens, UniProt P06733); assay: spectrophotometric enolase assay (PEP formation at […] nm) on purified enzyme; format: biochemical
T1 construct: gene ENO1; recombinant hEno1, expressed and purified using the same procedure as CaEno1

CaEno1 = molecular target: T2, CaEno1 (Candida albicans, UniProt P30575); assay: spectrophotometric enolase assay (PEP formation at […] nm) on purified enzyme; supported by DARTS; format: biochemical
T2 construct: gene ENO1; recombinant, 6 × His tag, expressed in E. coli BL21(DE3)
T2 sequence (P30575 whole entry): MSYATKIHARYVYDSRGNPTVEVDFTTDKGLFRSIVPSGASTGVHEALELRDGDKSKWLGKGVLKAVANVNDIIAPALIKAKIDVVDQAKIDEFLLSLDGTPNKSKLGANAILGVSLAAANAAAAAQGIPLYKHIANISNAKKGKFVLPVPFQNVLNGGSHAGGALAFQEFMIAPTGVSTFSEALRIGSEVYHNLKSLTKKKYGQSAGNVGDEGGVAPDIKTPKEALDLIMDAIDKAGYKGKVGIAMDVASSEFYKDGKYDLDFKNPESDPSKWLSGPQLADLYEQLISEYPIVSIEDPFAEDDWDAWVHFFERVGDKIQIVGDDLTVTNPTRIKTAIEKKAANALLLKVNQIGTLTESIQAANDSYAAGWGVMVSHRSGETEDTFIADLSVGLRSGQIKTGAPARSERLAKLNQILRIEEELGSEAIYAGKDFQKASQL

T1 sequence (P06733 2-434): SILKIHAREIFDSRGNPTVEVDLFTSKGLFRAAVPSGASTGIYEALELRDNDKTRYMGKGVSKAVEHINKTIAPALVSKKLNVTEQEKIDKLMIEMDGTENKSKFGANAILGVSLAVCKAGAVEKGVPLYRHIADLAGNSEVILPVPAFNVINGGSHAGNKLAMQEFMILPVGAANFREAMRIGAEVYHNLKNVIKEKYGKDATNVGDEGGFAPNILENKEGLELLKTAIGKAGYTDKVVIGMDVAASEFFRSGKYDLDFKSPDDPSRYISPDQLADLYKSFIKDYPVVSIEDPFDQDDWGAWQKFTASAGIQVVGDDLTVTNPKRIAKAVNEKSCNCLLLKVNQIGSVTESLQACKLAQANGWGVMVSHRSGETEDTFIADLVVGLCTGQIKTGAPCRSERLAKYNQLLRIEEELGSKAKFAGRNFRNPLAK

O=C(OC[C@H]1O[C@@H](OC(=O)c2cc(O)c(O)c(O)c2)[C@H](OC(=O)c2cc(O)c(O)c(O)c2)[C@@H](OC(=O)c2cc(O)c(O)c(O)c2)[C@@H]1OC(=O)c1cc(O)c(O)c(O)c1)c1cc(O)c(O)c(O)c1 [1,2,3,4,6-O-pentagalloyl-glucose]
IC50 (hEno1): 1500 ± 270 nM
Ki (CaEno1): 1100 ± 140 nM
